Results: patent US20170274032A1, “PHARMACEUTICAL COMPOSITIONS FOR TREATING ANXIETY” (Beijing Wonner Biotech. Ltd. Co., priority 2007, published 2017)

How the values were obtained:
Kunming (KM) mice [1] = experiment: Mouse light-dark transition experiment (Experiment 1); assay type: in vivo
Description: 1.1 Experimental animals: Kunming (KM) mice, male, 24˜26 g of body weight, secondary, are provided by the Experimental Animal Science Department of Capital Medical University, Beijing.
1.2 Experimental pharmaceuticals: The pharmaceutical of Embodiment 1 is provided by Beijing Wonner Biotech. Ltd. Co., and Diazepam is the product of Tianjin Jinhuei Amino Acid Co. Ltd.
1.3 Experimental equipment: Self-made light-dark transition box.
1.5.1 Group division and administration of drug: The mice are grouped randomly as 5 groups, and 10 mice are in each group. 1. High dose of Embodiment 1 (80 mg/kg); 2. middle dose of Embodiment 1 (40 mg/kg); 3. low dose of Embodiment 1 (20 mg/kg); 4. Diazepam (2.5 mg/kg); and 5. physiological saline (normal saline, NS). […]
(§1) Mouse light-dark transition test: The dark chamber occupies one third of the light-dark transition chamber (44 cm×21 cm×21 cm), and the top is capped. […] The times that the mouse enters into the dark chamber and returns to the light chamber within 10 minutes are determined, and the times thereof are the index for evaluating the anti-anxiety function of the drugs.
1.5.3 Statistic calculation: The experimental data are represented as X±SD, and the experimental result is calculated as one-way analysis of variance (one-way ANOVA) by SPSS 11.5 statistic software.

Kunming (KM) mice [2] = experiment: Mouse light-dark transition experiment (Experiment 2); assay type: in vivo
Experimental: 2.1 Experimental animals: Kunming (KM) mice, male, 24˜26 g of body weight, secondary, are provided by the Experimental Animal Science Department of Capital Medical University, Beijing.
2.2 Experimental pharmaceuticals: The pharmaceutical of Embodiment 4 is provided by Beijing Wonner Biotech. Ltd. Co., and Diazepam is the product of Tianjin Jinhuei Amino Acid Co. Ltd.
2.3 Experimental equipment: Self-made light-dark transition box.
2.4 Dose designs: 1. High dose of Embodiment 4 (80 mg/kg/d); 2. middle dose of Embodiment 4 (40 mg/kg/d); and 3. low dose of Embodiment 4 (20 mg/kg/d).
2.5.1 Group division and administration of drug: The mice are grouped randomly as 5 groups, and 10 mice are in each group. 1. High dose of Embodiment 4 (80 mg/kg); 2. middle dose of Embodiment 4 (40 mg/kg); 3. low dose of Embodiment 4 (20 mg/kg); 4. […]
as §1
2.5.3 Statistic calculation: The experimental data are represented as X±SD, and the experimental result is calculated as one-way ANOVA by SPSS 11.5 statistic software.

[3] = in the human body; cited from earlier work
[4] = 2.5 mg/kg, fed into the stomach once daily for 7 days, test 1 hour after last administration, within 10 minutes, X±SD, 10 mice

CN1C(=O)CN=C(c2ccccc2)c2cc(Cl)ccc21 [Diazepam]
Times of passing from dark chamber to light chamber (Kunming (KM) mice [1]; [4]): 11.3 ± 4.54 | Effect on the times that the mouse passes from the dark chamber to the light chamber, in words (Kunming (KM) mice [1]; compared with physiological saline, high, middle and low doses of Embodiment 1, Diazepam 2.5 mg/kg): significantly increase | Times of passing from dark chamber to light chamber (Kunming (KM) mice [2]; [4]): 11.7 ± 4.47 | Effect on the times that the mouse passes from the dark chamber to the light chamber, in words (Kunming (KM) mice [2]; compared with normal saline, high, middle and low doses of Embodiment 4, Diazepam 2.5 mg/kg): significantly increase

CC1(C)[C@@H](O[C@H]2O[C@H](C(=O)O)[C@@H](O)[C@H](O)[C@H]2O[C@@H]2O[C@H](C(=O)O)[C@@H](O)[C@H](O)[C@H]2O)CC[C@]2(C)[C@H]3C(=O)C=C4[C@@H]5C[C@@](C)(C(=O)O)CC[C@]5(C)CC[C@@]4(C)[C@]3(C)CC[C@@H]12 [glycyrrhizic acid]
Efficiency of conversion of glycyrrhizic acid to glycyrrhetinic acid [3]: ~100%
